What was measured:
[1] = system: patients with Nonalcoholic Steatohepatitis; assay: Phase 3 trial in Nonalcoholic Steatohepatitis (Example 2): thyroid hormone levels; assay type: in vivo, human
Experimental: (§1) A randomized, double-blind, placebo-controlled Phase 3 trial was conducted. Patients were randomly assigned to receive resmetirom 80 mg, resmetirom 100 mg, or placebo administered orally once daily. Screening biopsy results were used as baseline for histologic variables and a second biopsy was performed at Week 52.

[2] = system: patients with Nonalcoholic Steatohepatitis; assay: Phase 3 trial in Nonalcoholic Steatohepatitis (Example 2): NASH resolution and fibrosis improvement on biopsy; assay type: in vivo, human
Experimental: as §1

[3] = Resmetirom 80 mg, Week 52, not on thyroxine
[4] = Resmetirom 80 mg, Week 52, thyroxine-treated
[5] = Resmetirom 100 mg, Week 52, not on thyroxine
[6] = Resmetirom 100 mg, Week 52, thyroxine-treated
[7] = independent of thyroxine replacement

rT3 LS Mean CFB (SE) ([1]; Resmetirom 80 mg, Week 52): −4.6 (0.31) ng/dL
FT3/rT3 CFB, LS Mean Difference from PBO [1, 3]: 0.06
FT3/rT3 LS Mean CFB (SE) [1, 3]: 0.06 (0.005)
FT3 CFB, LS Mean Difference from PBO [1, 3]: 0.01 ng/L
FT3 LS Mean CFB (SE) [1, 3]: −0.01 (0.032) ng/L
FT4 % CFB, LS Mean Difference from PBO [1, 3]: −16.3%
FT4 CFB, LS Mean Difference from PBO [1, 3]: -0.18 ng/dL
FT4 LS Mean % CFB (SE) [1, 3]: −13.8 (0.97) %
FT4 LS Mean CFB (SE) [1, 3]: −0.16 (0.011) ng/dL
TBG CFB, LS Mean Difference from PBO [1, 3]: -1.8 mg/L
TBG LS Mean CFB (SE) [1, 3]: −0.19 (0.47) mg/L
TSH CFB, LS Mean Difference from PBO [1, 3]: −0.15 mIU/L
TSH LS Mean CFB (SE) [1, 3]: −0.23 (0.056) mIU/L
rT3 CFB, LS Mean Difference from PBO [1, 3]: -4.5 ng/dL
rT3 LS Mean CFB (SE) [1, 3]: −4.5 (0.33) ng/dL
FT3/rT3 CFB, LS Mean Difference from PBO [1, 4]: 0.06
FT3/rT3 LS Mean CFB (SE) [1, 4]: 0.05 (0.011)
FT3 CFB, LS Mean Difference from PBO [1, 4]: 0.05 ng/L
FT3 LS Mean CFB (SE) [1, 4]: 0.04 (0.089) ng/L
FT4 % CFB, LS Mean Difference from PBO [1, 4]: −17.9%
FT4 CFB, LS Mean Difference from PBO [1, 4]: -0.21 ng/dL
FT4 LS Mean % CFB (SE) [1, 4]: −14.0 (3.6) %
FT4 LS Mean CFB (SE) [1, 4]: −0.18 (0.041) ng/dL
TBG CFB, LS Mean Difference from PBO [1, 4]: -2.6 mg/L
TBG LS Mean CFB (SE) [1, 4]: −1.1 (1.4) mg/L
TSH CFB, LS Mean Difference from PBO [1, 4]: −0.41 mIU/L
TSH LS Mean CFB (SE) [1, 4]: −0.63 (0.27) mIU/L
rT3 CFB, LS Mean Difference from PBO [1, 4]: -5.1 ng/dL
rT3 LS Mean CFB (SE) [1, 4]: −5.1 (0.94) ng/dL
FT3/rT3 CFB, LS Mean Difference from PBO ([1]; Resmetirom 100 mg, Week 52): 0.07
FT3/rT3 LS Mean CFB (SE) ([1]; Resmetirom 100 mg, Week 52): 0.06 (0.004)
FT3 CFB, LS Mean Difference from PBO ([1]; Resmetirom 100 mg, Week 52): -0.05 ng/L
FT3 LS Mean CFB (SE) ([1]; Resmetirom 100 mg, Week 52): −0.08 (0.031) ng/L
FT4 % CFB, LS Mean Difference from PBO ([1]; Resmetirom 100 mg, Week 52): −20.7%
FT4 CFB, LS Mean Difference from PBO ([1]; Resmetirom 100 mg, Week 52): -0.24 ng/dL
FT4 LS Mean % CFB (SE) ([1]; Resmetirom 100 mg, Week 52): −18.1 (0.97) %
FT4 LS Mean CFB (SE) ([1]; Resmetirom 100 mg, Week 52): −0.22 (0.011) ng/dL
TBG CFB, LS Mean Difference from PBO ([1]; Resmetirom 100 mg, Week 52): -2.2 mg/L
TBG LS Mean CFB (SE) ([1]; Resmetirom 100 mg, Week 52): −0.60 (0.45) mg/L
TSH CFB, LS Mean Difference from PBO ([1]; Resmetirom 100 mg, Week 52): −0.10 mIU/L
TSH LS Mean CFB (SE) ([1]; Resmetirom 100 mg, Week 52): −0.20 (0.060) mIU/L
rT3 CFB, LS Mean Difference from PBO ([1]; Resmetirom 100 mg, Week 52): -5.2 ng/dL
rT3 LS Mean CFB (SE) ([1]; Resmetirom 100 mg, Week 52): −5.1 (0.32) ng/dL
FT3/rT3 CFB, LS Mean Difference from PBO [1, 5]: 0.07
FT3/rT3 LS Mean CFB (SE) [1, 5]: 0.06 (0.005)
FT3 CFB, LS Mean Difference from PBO [1, 5]: -0.06 ng/L
FT3 LS Mean CFB (SE) [1, 5]: −0.08 (0.033) ng/L
FT4 % CFB, LS Mean Difference from PBO [1, 5]: −20.0%
FT4 CFB, LS Mean Difference from PBO [1, 5]: -0.23 ng/dL
FT4 LS Mean % CFB (SE) [1, 5]: −17.6 (1.0) %
FT4 LS Mean CFB (SE) [1, 5]: −0.21 (0.011) ng/dL
TBG CFB, LS Mean Difference from PBO [1, 5]: -1.8 mg/L
TBG LS Mean CFB (SE) [1, 5]: −0.21 (0.49) mg/L
TSH CFB, LS Mean Difference from PBO [1, 5]: −0.12 mIU/L
TSH LS Mean CFB (SE) [1, 5]: −0.20 (0.058) mIU/L
rT3 CFB, LS Mean Difference from PBO [1, 5]: -5.1 ng/dL
rT3 LS Mean CFB (SE) [1, 5]: −4.9 (0.34) ng/dL
FT3/rT3 CFB, LS Mean Difference from PBO [1, 6]: 0.06
FT3/rT3 LS Mean CFB (SE) [1, 6]: 0.06 (0.010)
FT3 CFB, LS Mean Difference from PBO [1, 6]: -0.01 ng/L
FT3 LS Mean CFB (SE) [1, 6]: −0.03 (0.081) ng/L
FT4 % CFB, LS Mean Difference from PBO [1, 6]: −24.4%
FT4 CFB, LS Mean Difference from PBO [1, 6]: -0.29 ng/dL
FT4 LS Mean % CFB (SE) [1, 6]: −20.6 (3.3) %
FT4 LS Mean CFB (SE) [1, 6]: −0.26 (0.037) ng/dL
TBG CFB, LS Mean Difference from PBO [1, 6]: -4.6 mg/L
TBG LS Mean CFB (SE) [1, 6]: −3.1 (1.3) mg/L
TSH CFB, LS Mean Difference from PBO [1, 6]: 0.09 mIU/L
TSH LS Mean CFB (SE) [1, 6]: −0.13 (0.25) mIU/L
rT3 CFB, LS Mean Difference from PBO [1, 6]: -6.3 ng/dL
rT3 LS Mean CFB (SE) [1, 6]: −6.3 (0.85) ng/dL
Thyroid hormone indices ([1]; in vivo): not clinically impacted
Structure (SMILES): CC(C)c1cc(Oc2c(Cl)cc(-n3nc(C#N)c(=O)[nH]c3=O)cc2Cl)n[nH]c1=O [Resmetirom, 2-[3,5-dichloro-4-[(6-oxo-5-propan-2-yl-1H-pyridazin-3-yl)oxy]phenyl]-3,5-dioxo-1,2,4-triazine-6-carbonitrile]
effect on free triiodothyronine (FT3) [1, 7]: no effect
effect on thyroid-stimulating hormone (TSH) [1, 7]: no effect
reduction of free thyroxine (FT4) ([1]; resmetirom groups): 16-19%
NASH resolution / fibrosis improvement, 100 mg compared with 80 mg ([2]; 100 mg resmetirom group, except in patients ≥65 years): generally outperformed the 80 mg group
patients achieving NASH resolution or fibrosis improvement compared with placebo ([2]; Week 52 biopsy, across subgroups): significantly more resmetirom-treated patients achieving either NASH resolution or fibrosis improvement
response at both endpoints (NASH resolution, fibrosis improvement) by subgroup ([2]; patients with ≥30% liver fat reduction or SHBG increase ≥120%): greater response

Source: patent US20240423992A1, “BIOMARKERS FOR TREATING LIVER DISORDERS WITH THR-B AGONISTS AND RELATED USES” (Madrigal Pharmaceuticals, Inc., priority 2023, published 2024)
